Patent US12227495B2, “Herbicidal compounds” (SYNGENTA CROP PROTECTION AG, priority 2018, dated 2025)

Key:
Assay type in all cases: in vivo
Conditions in all cases: evaluated after 13 days
Lolium perenne (LOLPE) [1] = assay: Post-emergence herbicide test, glasshouse, percentage damage
Procedure: (§1) Seeds of a variety of test species are sown in standard soil in pots (Lolium perenne (LOLPE), Solanum nigrum (SOLNI), Amaranthus retoflexus (AMARE), Setaria faberi (SETFA), Echinochloa crus-galli (ECHCG), Ipomoea hederacea (IPOHE)). After cultivation for one day (pre-emergence) or after 8 days cultivation (post-emergence) under controlled conditions in a glasshouse (at 24/16° C., day/night; 14 hours light; 65% humidity), the plants are sprayed with an aqueous spray solution derived from the formulation of the technical active ingredient in acetone/water (50:50) solution containing 0.5% Tween 20 (polyoxyethelyene sorbitan monolaurate, CAS RN 9005-64-5). Compounds are applied at 500 g/ha unless otherwise stated. The test plants are then grown in a glasshouse under controlled conditions in a glasshouse (at 24/16° C., day/night; 14 hours light; 65% humidity) and watered twice daily. After 13 days for pre and post-emergence, the test is evaluated for the percentage damage caused to the plant. The biological activities are shown in the following table on a five point scale (5=81-100%; 4=61-80%; 3=41-60%; 2=21-40%; 1=0-20%).

[2] = system: Amaranthus retoflexus (AMARE); assay: as above
Procedure: as §1

[3] = system: Echinochloa crus-galli (ECHCG); assay: as above
Procedure: as §1

[4] = system: Ipomoea hederacea (IPOHE); assay: as above
Procedure: as §1

Setaria faberi (SETFA) [5] = assay: as above
Procedure: as §1

Solanum nigrum (SOLNI) [6] = assay: as above
Procedure: as §1

Lolium perenne (LOLPE) [7] = assay: Pre-emergence herbicide test, glasshouse, percentage damage
Procedure: as §1

[8] = system: Amaranthus retoflexus (AMARE); assay: as above
Procedure: as §1

[9] = system: Echinochloa crus-galli (ECHCG); assay: as above
Procedure: as §1

[10] = system: Ipomoea hederacea (IPOHE); assay: as above
Procedure: as §1

Setaria faberi (SETFA) [11] = assay: as above
Procedure: as §1

Solanum nigrum (SOLNI) [12] = assay: as above
Procedure: as §1

Compound	percentage damage caused to the plant, LOLPE (Lolium perenne (LOLPE) [1]; 1000 g/ha)	percentage damage caused to the plant, AMARE ([2]; 1000 g/ha)	percentage damage caused to the plant, ECHCG ([3]; 1000 g/ha)	percentage damage caused to the plant, IPOHE ([4]; 1000 g/ha)	percentage damage caused to the plant, SETFA (Setaria faberi (SETFA) [5]; 1000 g/ha)	percentage damage caused to the plant, SOLNI (Solanum nigrum (SOLNI) [6]; 1000 g/ha)	Pre-emergence Test LOLPE percentage damage (five point scale) (Lolium perenne (LOLPE) [7]; rate 1000 g/ha)	Pre-emergence Test AMARE percentage damage (five point scale) ([8]; rate 1000 g/ha)	Pre-emergence Test ECHCG percentage damage (five point scale) ([9]; rate 1000 g/ha)	Pre-emergence Test IPOHE percentage damage (five point scale) ([10]; rate 1000 g/ha)	Pre-emergence Test SETFA percentage damage (five point scale) (Setaria faberi (SETFA) [11]; rate 1000 g/ha)	Pre-emergence Test SOLNI percentage damage (five point scale) (Solanum nigrum (SOLNI) [12]; rate 1000 g/ha)	further results
O=[N+]([O-])c1cc(Cl)cnc1Oc1cccc(F)c1-c1cc(C(F)F)no1 [Compound A38]	1 (1=0-20%)	5 (5=81-100%)	1 (1=0-20%)	1 (1=0-20%)	1 (1=0-20%)	5 (5=81-100%)	1 (1=0-20%)	4 (4=61-80%)	1 (1=0-20%)	1 (1=0-20%)	1 (1=0-20%)	1 (1=0-20%)	
O=[N+]([O-])c1ccc(Oc2ccccc2-n2cc(C(F)(F)F)cn2)nc1 [Compound A14, 5-nitro-2-[2-[4-(trifluoromethyl)pyrazol-1-yl]phenoxy]pyridine]	5 (5=81-100%)	5 (5=81-100%)	5 (5=81-100%)	4 (4=61-80%)	5 (5=81-100%)	5 (5=81-100%)	5 (5=81-100%)	5 (5=81-100%)	5 (5=81-100%)	3 (3=41-60%)	5 (5=81-100%)	5 (5=81-100%)	
FC(F)c1cc(-c2c(Br)cccc2Oc2ncc(Cl)cc2Cl)on1 [Compound A89]	3 (3=41-60%)	5 (5=81-100%)	4 (4=61-80%)	4 (4=61-80%)	5 (5=81-100%)	4 (4=61-80%)	2 (2=21-40%)	4 (4=61-80%)	4 (4=61-80%)	3 (3=41-60%)	4 (4=61-80%)	2 (2=21-40%)	
N#Cc1cccnc1Oc1cccc(Cl)c1-c1cc(C(F)F)no1 [Compound A120]	3 (3=41-60%)	5 (5=81-100%)	4 (4=61-80%)	4 (4=61-80%)	5 (5=81-100%)	5 (5=81-100%)	2 (2=21-40%)	5 (5=81-100%)	5 (5=81-100%)	3 (3=41-60%)	5 (5=81-100%)	4 (4=61-80%)	
Fc1ccc(Oc2cccc(F)c2-c2cc(C(F)F)no2)nc1F [Compound A50]	1 (1=0-20%)	3 (3=41-60%)	2 (2=21-40%)	1 (1=0-20%)	3 (3=41-60%)	5 (5=81-100%)	1 (1=0-20%)	4 (4=61-80%)	1 (1=0-20%)	1 (1=0-20%)	4 (4=61-80%)	4 (4=61-80%)	
Fc1cccc(Oc2cc(C(F)(F)F)c(C(F)(F)F)cn2)c1-c1cc(C(F)F)no1 [Compound A78]	1 (1=0-20%)	3 (3=41-60%)	1 (1=0-20%)	1 (1=0-20%)	1 (1=0-20%)	4 (4=61-80%)	1 (1=0-20%)	1 (1=0-20%)	1 (1=0-20%)	1 (1=0-20%)	2 (2=21-40%)	1 (1=0-20%)	
N#Cc1cccnc1Oc1cccc(F)c1-c1cc(C(F)F)no1 [Compound A49]	1 (1=0-20%)	5 (5=81-100%)	3 (3=41-60%)	3 (3=41-60%)	2 (2=21-40%)	5 (5=81-100%)	1 (1=0-20%)	5 (5=81-100%)	3 (3=41-60%)	1 (1=0-20%)	5 (5=81-100%)	5 (5=81-100%)	
CS(=O)(=O)c1cnc(Oc2cccc(F)c2-c2cc(C(F)F)no2)c(F)c1 [Compound A39]	1 (1=0-20%)	3 (3=41-60%)	1 (1=0-20%)	1 (1=0-20%)	1 (1=0-20%)	3 (3=41-60%)	1 (1=0-20%)	5 (5=81-100%)	1 (1=0-20%)	1 (1=0-20%)	1 (1=0-20%)	1 (1=0-20%)	
Fc1cccc(Oc2cccc(C(F)F)n2)c1-c1cc(C(F)F)no1 [Compound A55]	1 (1=0-20%)	5 (5=81-100%)	1 (1=0-20%)	1 (1=0-20%)	2 (2=21-40%)	5 (5=81-100%)	1 (1=0-20%)	2 (2=21-40%)	1 (1=0-20%)	1 (1=0-20%)	4 (4=61-80%)	2 (2=21-40%)	
Fc1cnc(Oc2cccc(F)c2-c2cc(C(F)F)no2)c(F)c1 [Compound A10]													percentage damage caused to the plant, LOLPE (Lolium perenne (LOLPE) [1]; 500 g/ha): 5 (5=81-100%); percentage damage caused to the plant, AMARE ([2]; 500 g/ha): 5 (5=81-100%); percentage damage caused to the plant, ECHCG ([3]; 500 g/ha): 5 (5=81-100%); percentage damage caused to the plant, IPOHE ([4]; 500 g/ha): 5 (5=81-100%); percentage damage caused to the plant, SETFA (Setaria faberi (SETFA) [5]; 500 g/ha): 5 (5=81-100%); percentage damage caused to the plant, SOLNI (Solanum nigrum (SOLNI) [6]; 500 g/ha): 5 (5=81-100%); Pre-emergence Test LOLPE percentage damage (five point scale) (Lolium perenne (LOLPE) [7]; rate 500 g/ha): 5 (5=81-100%); Pre-emergence Test AMARE percentage damage (five point scale) ([8]; rate 500 g/ha): 5 (5=81-100%); Pre-emergence Test ECHCG percentage damage (five point scale) ([9]; rate 500 g/ha): 5 (5=81-100%); Pre-emergence Test IPOHE percentage damage (five point scale) ([10]; rate 500 g/ha): 5 (5=81-100%); Pre-emergence Test SETFA percentage damage (five point scale) (Setaria faberi (SETFA) [11]; rate 500 g/ha): 5 (5=81-100%); Pre-emergence Test SOLNI percentage damage (five point scale) (Solanum nigrum (SOLNI) [12]; rate 500 g/ha): 5 (5=81-100%)
FC(F)c1cc(-c2c(Cl)cccc2Oc2cc(C(F)(F)F)ccn2)on1 [Compound A112]	3 (3=41-60%)	4 (4=61-80%)	3 (3=41-60%)	3 (3=41-60%)	4 (4=61-80%)	4 (4=61-80%)	3 (3=41-60%)	5 (5=81-100%)	4 (4=61-80%)	1 (1=0-20%)	5 (5=81-100%)	2 (2=21-40%)	
